Assay results: paper PMC11047187 (Synthetic and Systems Biotechnology, 2024)

Assays:
[1] = target: T1, EcFADS (FAD synthase, RibF; RFK activity) (Escherichia coli, UniProt P0AG40); assay: RFK assay, FMN by HPLC fluorescence, Michaelis-Menten fit; type: biochemical; details: riboflavin kinase activity; 0.01-0.8 mM ATP, saturated RF; 15 mM MgCl2, 10 mM Na2SO3, potassium phosphate pH 7.5, 37 °C; read-out: KATP m
T1 construct: full-length bifunctional RibF in pETDuet-1 (BamHI/NotI), His-tagged, Ni-NTA purified, expressed in E. coli BL21(DE3); natural BL21 variant H115L (not engineered); about 35 kDa; mainly monomer; tag removal not mentioned
Source text: (§1) RFK assay, FMN by HPLC fluorescence, Michaelis-Menten fit on EcFADS (FAD synthase, RibF; RFK activity)

[2] = target: T2, EcFADS (FAD synthase, RibF; RFK activity) (Escherichia coli, UniProt P0AG40, H187L/N282D, form not given); assay: as above; type: biochemical; details: riboflavin kinase activity; 0.01-0.8 mM ATP, saturated RF; 15 mM MgCl2, 10 mM Na2SO3, potassium phosphate pH 7.5, 37 °C; read-out: KATP m
T2 construct: full-length bifunctional RibF in pETDuet-1 (BamHI/NotI), His-tagged, Ni-NTA purified, expressed in E. coli BL21(DE3); natural BL21 variant H115L (not engineered); about 35 kDa; mainly monomer; tag removal not mentioned
T2 sequence (P0AG40 whole entry H187L/N282D, form open): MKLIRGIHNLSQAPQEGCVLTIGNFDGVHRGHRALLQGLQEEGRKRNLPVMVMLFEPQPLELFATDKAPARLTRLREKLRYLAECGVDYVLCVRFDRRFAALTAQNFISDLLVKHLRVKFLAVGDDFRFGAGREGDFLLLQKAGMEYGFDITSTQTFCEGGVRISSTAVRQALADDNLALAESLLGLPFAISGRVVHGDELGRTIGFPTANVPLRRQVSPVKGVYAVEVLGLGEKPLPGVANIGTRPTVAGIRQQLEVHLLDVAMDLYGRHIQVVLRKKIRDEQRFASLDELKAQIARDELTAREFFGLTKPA
Source text: as §1

Nc1ncnc2c1ncn2[C@@H]1O[C@H](COP(=O)(O)OP(=O)(O)OP(=O)(O)O)[C@@H](O)[C@H]1O [ATP]
Km [1]: 10.2 ± 2.55 µM
Km [2]: 91.1 ± 36.7 µM
